Experimental data: the METLIN SMRT retention time set (Domingo-Almenara et al. 2019)

Experiment: gradient 5% acetonitrile 3 min, to 50% in 2 min, to 85% in 15 min, held 3 min, 100 µL/min
Conditions: column: Zorbax Extend-C18 2.1 x 50 mm; eluents: water / acetonitrile, 0.1% formic acid
How it was run: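 Standards, all pure, were combined into mixtures of ~100 molecules and run at 100 μL/min on a Zorbax Extend-C18 column (2.1 × 50 mm, 1.8 μm) with water and acetonitrile, each containing 0.1% formic acid. A coupled quadrupole time-of-flight mass spectrometer operated in positive and negative ionization mode. Retention time values come from computationally picked adduct peaks, each inspected manually.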

SMILES	RP-LC retention time
CCCc1c(C(=O)O)nnn1Cc1ccccc1	746 s
Cc1nc(N2CCCC(C(=O)Nc3ccc4c(c3)OCCO4)C2)c2c(C)c(C)oc2n1 (stereo unspecified)	846 s
CCOC(=O)c1nc(N(C)C2CCCCC2)c2ccccc2n1	789 s
O=C(Cn1nc(C(=O)N2CCCC2)c2ccccc21)N1CCN(C2CCCCC2)CC1	597 s
CCCc1nnc(C(=O)Nc2cccc(C(=O)NCCc3c[nH]c4ccc(Cl)cc34)c2)s1	981 s
NS(=O)(=O)c1ccc(Nc2ccccc2)c([N+](=O)[O-])c1	856 s
O=C(NC1CCN(c2cc(-c3cccs3)[nH]n2)C1)c1ccccc1 (stereo unspecified)	695 s
Cn1c(=O)sc2cc(S(=O)(=O)N3CCC(C(=O)NCCC4=CCCCC4)CC3)ccc21	911 s
CC(C)Cn1c(=O)c(C(=O)NCCc2ccccn2)nc2cccnc21	604 s
O=C(NCCCn1ccnc1)C(=O)NCCC1=CCCCC1	571 s
CCOc1ccc(CN2C[C@@H]3C(=O)N(CCCN4CCCC4=O)C(=O)[C@@H]3C2)cc1	610 s
CC1CCN(C(=O)CS(=O)Cc2cnn(-c3ccccc3)c2-n2cccc2)CC1 (stereo unspecified)	828 s
COCCCn1c(=O)c2ccccc2n(Cc2nc(-c3ccc(OC)cc3)no2)c1=O	968 s
O=C(NC1CCS(=O)(=O)C1)C1Cn2cccc2C(=O)N1Cc1ccccc1 (stereo unspecified)	652 s
CCCC(=O)N1CCN(c2nc(CN3CCOCC3)cs2)CC1	580 s
Cc1cc(N(C)C)nc(N2CCN(S(=O)(=O)c3ccc(Br)cc3)CC2)n1	733 s
COc1ccc(OC)c2sc(NCc3ccccn3)nc12	585 s

SMILES	RP-LC retention time
Cc1occc1C(=O)NC1CCc2nn(C)c(=O)n2CC1 (stereo unspecified)	604 s
Cc1cccc(Cn2c(=O)n(CCNC(=O)CC(C)(C)C)c3ncccc32)c1	864 s
CCC(=O)NCc1nc2c(n1C)CN(S(=O)(=O)c1ccc(CC)cc1)CC2	581 s
CC1CN(Cc2nc3c(c(=O)n(C)c(=O)n3C)n2Cc2ccc(Br)cc2)CC(C)O1 (stereo unspecified)	755 s
Cc1c(C#N)c2ccccc2n1CC(=O)NCc1ccc2c(c1)OCCCO2	856 s
CC(C)CNC(=O)N1CC(n2cc(C(=O)N(C)C)nn2)C1	609 s
Nc1cccc(C(=O)CC2(O)C(=O)Nc3ccc(Cl)cc32)c1 (stereo unspecified)	627 s
Cc1ccc(NS(=O)(=O)c2ccc(-c3c(C)noc3C)cc2)c(C)c1	985 s
Cc1ccc(-n2c(=O)c3c(cc(C)n3C)n(CC(=O)Nc3ccccc3F)c2=O)cc1	841 s
O=C(C1CCC1)N1CCc2sc(S(=O)(=O)NCc3ccc(F)cc3)cc2C1	877 s
CCNC(=O)c1nn(-c2ccc(OC)c(OC)c2)c(OC)cc1=O	626 s
Cn1cnc(S(=O)(=O)N2CCC(C(=O)NC3CCCCCC3)CC2)c1	680 s
COc1ccc(N2CCN(CCNC(=O)C3CCCN(c4cc(=O)n(C)c(=O)n4C)C3)CC2)cc1 (stereo unspecified)	583 s
COc1ccc(CNC(=O)c2sc(-c3cn(C(C)C)c4ncccc34)nc2C)cc1	1030 s
Cc1cc(N2CCCCCC2)n2nc(CN3CCN(C(C)C)CC3)nc2n1	555 s
CCN(CC)CCCC(C)Nc1nc(C)cc(Nc2ccc3nc(C)cc(N)c3c2)n1 (stereo unspecified)	568 s

Further lines, results first:

RP-LC retention time	SMILES
879 s	COc1ccc(CCc2nc3nccc(-c4cccc(OC)c4)n3n2)cc1
839 s	COc1ccccc1NC(=O)Cn1nc2c(Oc3ccccc3C)nccn2c1=O
915 s	Clc1ccc(-c2nc3ccc(Cl)cn3c2Nc2ccc3c(c2)OCCO3)cc1
1180 s	Cc1ccc(-c2nc(-c3ccc(NS(=O)(=O)c4cccs4)cc3)no2)cc1F
886 s	Cc1cc(C)n2c(Nc3ccc(Cl)cc3)c(-c3ccc(Cl)cc3)nc2n1
931 s	Cc1ccc(-c2cc3c4nnc(SCC(=O)Nc5ccc(F)cc5)n4ccn3n2)cc1C
1310 s	CC(=O)c1cccc(OC(=O)c2cc3c(C)nn(-c4ccccc4)c3s2)c1
971 s	Cc1ccc(NC(=O)N2CCC(C(C)C(=O)Nc3cccc(Cl)c3)CC2)cc1 (stereo unspecified)
647 s	COc1ccc(CCC(=O)NC2CCN(c3nnc4cccc(C)n34)CC2)cc1
836 s	CC1=C(c2ccc(C)cc2)S(=O)(=O)N=C1N1CCCN(C(=O)c2cccs2)CC1
698 s	Cc1ccc(NC(=O)CSc2ccc(N3CCCC(C(=O)NC4CC4)C3)nn2)cc1Cl (stereo unspecified)
757 s	O=C(Cn1nc(C(=O)N2CCCC2)c2ccccc21)NCc1ccc2c(c1)OCO2
885 s	O=C(NCCSCc1ccco1)c1cc(-c2ccccn2)nc2ccccc12
798 s	Cc1cc(-n2c(C)nc3ccccc3c2=O)ccc1NC(=O)Cc1ccccc1F
902 s	O=C(CCc1ccccc1)NC1(c2nc(-c3ccncc3)no2)CCCCC1
696 s	COc1ccc(-n2nc3c(N4CCCC(C(=O)NC5CCCC5)C4)nnc(C)c3c2C)cc1 (stereo unspecified)
866 s	CCc1ccc(S(=O)(=O)N2C[C@@H](F)C[C@H]2C(=O)N2CCCCC2)cc1

RP-LC retention time	SMILES
667 s	CC(=O)NCc1csc(C2CCCN(C(=O)c3cc(F)ccc3F)C2)n1 (stereo unspecified)
889 s	CN(C)c1ccc(C(=O)NC(Cc2ccccc2)c2nnc(N3CCCCC3)o2)cc1 (stereo unspecified)
718 s	CCc1ccccc1S(=O)(=O)NCc1cccnc1-c1ccc(OC)cc1
884 s	CC(Oc1ccc(Cl)cc1)C(=O)N1CCN(c2cc(-c3ccccc3)[nH]n2)CC1 (stereo unspecified)
729 s	COc1ccc(-c2nc3cc(C)ccn3c2NC(=O)COc2ccc(Cl)cc2)cc1
832 s	Cc1cccc(C)c1NC(=O)Cn1nc2cc(-c3ccccc3)nc(C)n2c1=O
824 s	COc1ccc(S(=O)(=O)NCc2ccc3c(c2)CCN3C(=O)c2ccccc2)cc1OC
687 s	Cc1ccsc1C(=O)Nc1ccc2ncnc(N3CCCCC3)c2c1
781 s	CC(=O)Nc1ccc(OCc2cc(C(=O)NC3CCCCC3)no2)cc1
1040 s	Cc1ccc(N2CC(c3noc(-c4sccc4C)n3)CC2=O)cc1 (stereo unspecified)
1050 s	Cc1ccc(N2C(=O)N(Cc3ccccc3F)S(=O)(=O)c3cccnc32)cc1
893 s	O=C(C1CCN(c2nc3ccc(-c4cccs4)nc3s2)CC1)N1CCCC1
807 s	CSc1ccc(-c2nc3cnccn3c2Nc2cccc(C(=O)N3CCCCC3)c2)cc1
742 s	O=C(Nc1ccccc1F)C1CCN(S(=O)(=O)c2cc(C(=O)N3CCOCC3)cs2)CC1
814 s	Cc1ccc(-n2cc3c(N4CCCC(C(=O)NC(C)c5ccc(C)cc5C)C4)ncnc3n2)cc1 (stereo unspecified)
893 s	CC(=O)Nc1ccc(CCc2nc3ccc(C(=O)NC4CC4)cc3[nH]2)cc1
